Results reported in paper PMC10873978, “Novel tetrahydroisoquinolines as DHFR and CDK2 inhibitors: synthesis, characterization, anticancer activity and antioxidant properties” (BMC Chemistry, 2024).
Where two headings read alike, the source gives them in different places.

Experiments:
A549 cell line = test: In vitro cytotoxic activity, MTT method, A549
Procedure: (§1) Cell lines: The in vitro human breast cancerous cell line (MCF7), lung cancerous cell lines (A549) and normal cell lines were purchased from Serum and Vaccine formulation in Cairo-Egypt.
(§2) In vitro cytotoxic activity of all synthesized compounds against two human breast cell line (MCF7) and lung cell lines (A549) was evaluated according to the MTT method. Firstly, Growth the cell line medium in 96 well tissue culture plate was injected with 10^5 cells/mL (100 uL/plate well) of the cell line and incubated at 37 °C for 24 h to develop a monolayer sheet then the formed growth medium was poured from 96 well microtiter plates after the confluent sheet of cells. […] Secondly, add 0.1 mL of each concentration tetrahydroisoquinoline sample to each plate. The plates were incubated at 37 °C. Thirdly MTT solution (5 mg/mL in PBS) is prepared. Add 20 µL of MTT solution to each well plates. And shaking in 150 rpm for 5 min, to mix the MTT into the media. Then incubate at (37 °C, 5% CO2) for 1–5 h. Finally read the optical density at 560 nm and subtract background at 620 nm.
(§3) In this work, doxorubicin was used as a positive control drug for comparison with the synthesized compounds under the same experimental conditions.

MCF7 cell line = test: In vitro cytotoxic activity, MTT method, MCF7; type: cell-based, human; settings: for IC50: Homo sapiens, MCF7, MCF7 cell line, MTT
Procedure: as §1, §2, §3

[1] = Homo sapiens, read-out: IC50 ± SD

Q: For `COc1cccc2c1C(=O)c1c(O)c3c(c(O)c1C2=O)C[C@@](O)(C(=O)CO)C[C@@H]3O[C@H]1C[C@H](N)[C@H](O)[C@H](C)O1` [Douxrbicin], which IC50 (A549 cell line; A549) is on record?
A: 218 nM

Q: And the Toxicity % (A549 cell line; A549, Conc. 0.0487 µMol)?
A: 20%

Q: And the Viability % (A549 cell line; A549, Conc. 0.0487 µMol)?
A: 80%

Q: And the Viability % (A549 cell line; A549, Conc. 0.0975 µMol)?
A: 73.2%

Q: And the Toxicity % (A549 cell line; A549, Conc. 0.195 µMol)?
A: 36.33%

Q: And the Viability % (A549 cell line; A549, Conc. 0.195 µMol)?
A: 63.67%

Q: What about the Toxicity % (A549 cell line; A549, Conc. 0.391 µMol) of the same compound?
A: 62.45%

Q: And the Viability % (A549 cell line; A549, Conc. 0.391 µMol)?
A: 37.55%

Q: And the Viability % (A549 cell line; A549, Conc. 0.781 µMol)?
A: 20.26%

Q: And the Toxicity % (A549 cell line; A549, Conc. 1.562 µMol)?
A: 89.84%

Q: And the Viability % (A549 cell line; A549, Conc. 1.562 µMol)?
A: 10.16%

Q: What about the Toxicity % (A549 cell line; A549, Conc. 3.125 µMol) of the same compound?
A: 93.56%

Q: What about the Viability % (A549 cell line; A549, Conc. 3.125 µMol) of the same compound?
A: 6.44%

Q: What about the Toxicity % (A549 cell line; A549, Conc. 6.25 µMol) of the same compound?
A: 95.35%

Q: And the Viability % (A549 cell line; A549, Conc. 6.25 µMol)?
A: 4.651%

Q: And the Toxicity % (A549 cell line; A549, Conc. 12.5 µMol)?
A: 97.9%

Q: And the Viability % (A549 cell line; A549, Conc. 12.5 µMol)?
A: 2.1%

Q: And the Toxicity % (A549 cell line; A549, Conc. 25 µMol)?
A: 98.9%

Q: What about the Viability % (A549 cell line; A549, Conc. 25 µMol) of the same compound?
A: 1.1%

Q: What does the source list for `CC(=O)C1C(c2ccc(N(C)C)cc2)c2c(C)nc(SCC(N)=O)c(C#N)c2CC1(C)O` (stereo not drawn) [Compound 5, 2-[(7-Acetyl-4-cyano-1,6-dimethyl-6-hydroxy-8-(4-N,N-dimethylamino-phenyl)-5,6,7,8-tetrahydroisoquinolin-3-yl)thio]acetamide]?
A: IC50 (MCF7 cell line): 924 ± 7 nM; Toxicity % (MCF7 cell line; MCF7, 0.0487 µMol): -4.567%; Viability % (MCF7 cell line; MCF7, 0.0487 µMol): 104.5%; Toxicity % (MCF7 cell line; MCF7, 0.0975 µMol): -3.545%; Viability % (MCF7 cell line; MCF7, 0.0975 µMol): 103.6%; Toxicity % (MCF7 cell line; MCF7, 0.195 µMol): -2.859%; Viability % (MCF7 cell line; MCF7, 0.195 µMol): 102.9%; Toxicity % (MCF7 cell line; MCF7, 0.391 µMol): 4.208%; Viability % (MCF7 cell line; MCF7, 0.391 µMol): 95.79%; Toxicity % (MCF7 cell line; MCF7, 0.781 µMol): 35.46%; Viability % (MCF7 cell line; MCF7, 0.781 µMol): 64.54%; Toxicity % (MCF7 cell line; MCF7, 1.562 µMol): 77.53%; Viability % (MCF7 cell line; MCF7, 1.562 µMol): 22.47%; Toxicity % (MCF7 cell line; MCF7, 3.125 µMol): 88.89%; Viability % (MCF7 cell line; MCF7, 3.125 µMol): 11.11%; Toxicity % (MCF7 cell line; MCF7, 6.25 µMol): 93.91%; Viability % (MCF7 cell line; MCF7, 6.25 µMol): 6.087%; Toxicity % (MCF7 cell line; MCF7, 12.5 µMol): 96.85%; Viability % (MCF7 cell line; MCF7, 12.5 µMol): 3.145%; Toxicity % (MCF7 cell line; MCF7, 25 µMol): 97.22%; Viability % (MCF7 cell line; MCF7, 25 µMol): 2.778%; Toxicity % (A549 cell line; A549, Conc. 0.0487 µMol): 0%; Viability % (A549 cell line; A549, Conc. 0.0487 µMol): 100%; Toxicity % (A549 cell line; A549, Conc. 0.0975 µMol): 0.13%; Viability % (A549 cell line; A549, Conc. 0.0975 µMol): 99.87%; Toxicity % (A549 cell line; A549, Conc. 0.195 µMol): 0.3156%; Viability % (A549 cell line; A549, Conc. 0.195 µMol): 99.68%; Toxicity % (A549 cell line; A549, Conc. 0.391 µMol): 9.625%; Viability % (A549 cell line; A549, Conc. 0.391 µMol): 90.37%; Toxicity % (A549 cell line; A549, Conc. 0.781 µMol): 36.96%; Viability % (A549 cell line; A549, Conc. 0.781 µMol): 63.04%; Toxicity % (A549 cell line; A549, Conc. 1.562 µMol): 54.08%; Viability % (A549 cell line; A549, Conc. 1.562 µMol): 45.92%; Toxicity % (A549 cell line; A549, Conc. 3.125 µMol): 69.66%; Viability % (A549 cell line; A549, Conc. 3.125 µMol): 30.34%; Toxicity % (A549 cell line; A549, Conc. 6.25 µMol): 83.27%; Viability % (A549 cell line; A549, Conc. 6.25 µMol): 16.73%; Toxicity % (A549 cell line; A549, Conc. 12.5 µMol): 91.6%; Viability % (A549 cell line; A549, Conc. 12.5 µMol): 8.402%; Toxicity % (A549 cell line; A549, Conc. 25 µMol): 96.37%; Viability % (A549 cell line; A549, Conc. 25 µMol): 3.629%; IC50 (A549 cell line; [1]): 1247 ± 2 nM

Q: `CCOC(=O)CSc1nc(C)c2c(c1C#N)CC(C)(O)C(C(C)=O)C2c1ccc(N(C)C)cc1` (stereo not drawn) [Compound 4, Ethyl 2-((7-Acetyl-4-cyano-1,6-dimethyl-6-hydroxy-8-(4-N,N-dimethylamino-phenyl)-5,6,7,8-tetrahydroisoquinolin-3-yl)thio)acetate] was tested. Which IC50 (MCF7 cell line) did it give?
A: 3074 ± 8 nM

Q: What about the Toxicity % (MCF7 cell line; MCF7, 0.0487 µMol) of the same compound?
A: 0.03467%

Q: And the Viability % (MCF7 cell line; MCF7, 0.0487 µMol)?
A: 99.94%

Q: What about the Toxicity % (MCF7 cell line; MCF7, 0.0975 µMol) of the same compound?
A: 0.06434%

Q: What about the Viability % (MCF7 cell line; MCF7, 0.0975 µMol) of the same compound?
A: 99.94%

Q: And the Toxicity % (MCF7 cell line; MCF7, 0.195 µMol)?
A: 0.0817%

Q: What about the Viability % (MCF7 cell line; MCF7, 0.195 µMol) of the same compound?
A: 99.92%

Q: What about the Viability % (MCF7 cell line; MCF7, 0.391 µMol) of the same compound?
A: 100%

Q: And the Toxicity % (MCF7 cell line; MCF7, 0.781 µMol)?
A: 7.925%

Q: And the Viability % (MCF7 cell line; MCF7, 0.781 µMol)?
A: 92.08%

Q: What about the Toxicity % (MCF7 cell line; MCF7, 1.562 µMol) of the same compound?
A: 23.41%

Q: And the Viability % (MCF7 cell line; MCF7, 1.562 µMol)?
A: 76.59%

Q: And the Toxicity % (MCF7 cell line; MCF7, 3.125 µMol)?
A: 36.89%

Q: And the Viability % (MCF7 cell line; MCF7, 3.125 µMol)?
A: 63.11%

Q: What about the Toxicity % (MCF7 cell line; MCF7, 6.25 µMol) of the same compound?
A: 82.07%

Q: And the Viability % (MCF7 cell line; MCF7, 6.25 µMol)?
A: 17.93%

Q: What about the Toxicity % (MCF7 cell line; MCF7, 12.5 µMol) of the same compound?
A: 91.75%

Q: What about the Viability % (MCF7 cell line; MCF7, 12.5 µMol) of the same compound?
A: 8.252%

Q: And the Toxicity % (MCF7 cell line; MCF7, 25 µMol)?
A: 96.81%

Q: What about the Viability % (MCF7 cell line; MCF7, 25 µMol) of the same compound?
A: 3.186%

Q: What about the Toxicity % (A549 cell line; A549, Conc. 0.0487 µMol) of the same compound?
A: 1.8%

Q: And the Viability % (A549 cell line; A549, Conc. 0.0487 µMol)?
A: 98.2%

Q: And the Toxicity % (A549 cell line; A549, Conc. 0.0975 µMol)?
A: 2%

Q: What about the Viability % (A549 cell line; A549, Conc. 0.0975 µMol) of the same compound?
A: 98%

Q: And the Toxicity % (A549 cell line; A549, Conc. 0.195 µMol)?
A: 3.945%

Q: And the Viability % (A549 cell line; A549, Conc. 0.195 µMol)?
A: 96.06%

Q: And the Toxicity % (A549 cell line; A549, Conc. 0.391 µMol)?
A: 21.14%

Q: And the Viability % (A549 cell line; A549, Conc. 0.391 µMol)?
A: 78.86%

Q: What about the Toxicity % (A549 cell line; A549, Conc. 0.781 µMol) of the same compound?
A: 32.54%

Q: And the Viability % (A549 cell line; A549, Conc. 0.781 µMol)?
A: 67.46%

Q: And the Toxicity % (A549 cell line; A549, Conc. 1.562 µMol)?
A: 62.13%

Q: And the Viability % (A549 cell line; A549, Conc. 1.562 µMol)?
A: 37.87%

Q: What about the Toxicity % (A549 cell line; A549, Conc. 3.125 µMol) of the same compound?
A: 70.97%

Q: What about the Viability % (A549 cell line; A549, Conc. 3.125 µMol) of the same compound?
A: 29.03%

Q: And the Toxicity % (A549 cell line; A549, Conc. 6.25 µMol)?
A: 89.19%

Q: What about the Viability % (A549 cell line; A549, Conc. 6.25 µMol) of the same compound?
A: 10.81%

Q: What about the Toxicity % (A549 cell line; A549, Conc. 12.5 µMol) of the same compound?
A: 95.94%

Q: What about the Viability % (A549 cell line; A549, Conc. 12.5 µMol) of the same compound?
A: 4.063%

Q: What about the Toxicity % (A549 cell line; A549, Conc. 25 µMol) of the same compound?
A: 97.28%

Q: And the Viability % (A549 cell line; A549, Conc. 25 µMol)?
A: 2.722%

Q: What about the IC50 (A549 cell line; [1]) of the same compound?
A: 918 ± 2 nM
